# Literature values as cited in patent US5707615A, “Method of treating HIV infections with anti-viral formulations” (Merrell Pharmaceuticals Inc., priority 1997, dated 1998).
# Tested on: HIV
# Settings: cited from earlier work
smiles,measurement,value
CCC(O)[C@H](N)C(=O)O (stereo partly drawn) [β-hydroxy-norvaline],expression of HIV glycoproteins and formation of syncytia,inhibit expression of HIV glycoproteins and block the formation of syncytia
